Several values for one entry are separate records, joined by “and”; a condition that tells them apart may be missing. Equal values may be shown once.
Test: Study of Composition-3 vs Januvia (Sitagliptin) vs Placebo in T2D adult patients with inadequate glycemic control, 04-week treatment
Assay type: in vivo, human
Procedure: A study of Composition-3 vs Januvia (Sitagliptin) vs Placebo in adult patients with inadequate glycemic control • 1. Composition-3—Oral insulin—8 mg • 2. Reference—Januvia (Sitagliptin)—100 mg • 3. Placebo
The pivotal study was involved 36 patients divided in to 3 groups of 12 each randomized to 1:1:1 into three cohorts dosed with 8 mg of Composition-3at night, Januvia 100 mg (Sitagliptin) at night and placebo at night.
Patient population-T2D adult patients above age of 21 years with inadequate glycemic control who were managing their condition with diet and metformin monotherapy.
• HbA1c ≥7.5% on metformin ≥500 mg daily • At time of randomization, patients were treated for their diabetes by diet, exercise, and metformin (≥500 mg/day; any type and regimen). […] A negative urine pregnancy test was obtained during Visit 2 and at Visit 4 (prior to randomization). • Males and females of childbearing potential used two methods of contraception (double barrier method), one of which must be an acceptable barrier method from the time of screening to the last study visit
• Patients who meet any of the following criteria was not eligible for this study. • Presence of any clinically significant endocrine disease according to the Investigator (euthyroid patients on replacement therapy was included if the dosage of thyroxine is stable for at least six weeks prior to Screening Visit). • Clinical diagnosis of Type 1 diabetes. • Presence or history of cancer within the past five years except for adequately treated localized basal cell skin cancer or in situ uterine cervical cancer. • Laboratory abnormalities at screening including: • 1. C-peptide <1.0 ng/mL. • 2. Positive pregnancy test in females of childbearing potential (at screening and start of run-in period). • 3. Abnormal serum thyrotropin (TSH) levels >1.5 times the upper limit of normal. • 4. Positive test for hepatitis B surface antigen and/or hepatitis C antibody. • 5. Positive test for HIV. • 6. Serum Cr >1.4 mg/dl in males, >1.3 mg/dl in females. • 7. Any relevant abnormality interfering with the efficacy or the safety assessments during study drug administration. • Use of the following medications: • 1. History of use of insulin for greater than one week in the last six months and any use of insulin in the last six weeks prior to randomization. • 2. Administration of anti-diabetic drugs other than metformin within four weeks prior to randomization visit. Administration of thyroid preparations or thyroxine within six weeks prior to screening visit. […] (Note: Alcohol abuse includes heavy alcohol intake as defined by >3 drinks per day or >14 drinks per week, or binge drinking). • Elevated liver enzymes (alanine transaminase (ALT), […], alkaline phosphatase) greater than two times the upper limit of normal at screening. • Very high triglyceride level (>500 mg/dL) at screening. • Any clinically significant electrocardiogram (ECG) abnormality at screening or cardiovascular disease. Clinically significant cardiovascular disease will include: • 1. History of stroke, transient ischemic attack, or myocardial infarction within six months prior to screening, • 2. History of or currently have New York Heart Associate Class II-IV heart failure prior to screening, or • 3. Uncontrolled hypertension defined as blood pressure ≥160 mmHg (systolic) or ≥100 mmHg (diastolic) at screening.
• The primary endpoint of the study was to compare the efficacy of Composition-3 to Sitagliptin & placebo in improving glycaemic control as assessed by A1c over a 04-week treatment period, with a secondary endpoint of comparing Composition-3 to Sitagliptin & placebo in change from baseline in FPG at week 04 • 1. Change from Baseline in Haemoglobin A1c (A1C) at Week 04 [Time Frame: Baseline and Week 04] A1C was measured as the percentage of glycosylated haemoglobin. Change in A1C following 04 weeks of therapy (i.e., A1C at Week 04 minus A1C at baseline) • 2. […]

Q: With `N[C@@H](CC(=O)N1CCn2c(nnc2C(F)(F)F)C1)Cc1cc(F)c(F)cc1F` [Sitagliptin] as the molecule, how does the “Mean A1c (HbA1c) % week 04” value (group mean n = 12, Week 04) read?
A: 6.66%

Q: What about the “Mean FPG (mg/dl) week 04” value (group mean n = 12, Week 04) of the same molecule?
A: 160.53 mg/dL

Q: What about the “% Improvement A1c (HbA1c)” value (group mean n = 12, Week 04 vs baseline) of the same molecule?
A: 14.7%

Q: What about the “Mean A1c (HbA1c) % baseline” value (group mean n = 12, baseline) of the same molecule?
A: 7.81%

Q: What about the “Mean FPG (mg/dl) baseline” value (group mean n = 12, baseline) of the same molecule?
A: 200.68 mg/dL

Q: And the “FPG (mg/dl) Week 04” value (individual patient, Week 04, before breakfast)?
A: 155.06 mg/dl and 159.18 mg/dl and 156.1 mg/dl and 150.54 mg/dl and 158.1 mg/dl and 166.66 mg/dl and 157.66 mg/dl and 164.78 mg/dl (2×) and 182.58 mg/dl and 152.06 mg/dl and 158.54 mg/dl

Q: And the “A1c (HbA1c) % Week 04” value (individual patient, Week 04, dosed orally at night)?
A: 6.6% (4×) and 6.8% (3×) and 6.5% (2×) and 6.4% (2×) and 7.3%

Q: And the “A1c (HbA1c) % Baseline” value (individual patient, baseline, T2D patients on metformin)?
A: 7.9% (2×) and 8% and 7.6% (2×) and 7.7% (3×) and 7.8% (3×) and 8.2%

Q: And the “FPG (mg/dl) Baseline” value (individual patient, baseline, before breakfast)?
A: 203.94 mg/dl (2×) and 207.5 mg/dl and 193.26 mg/dl (2×) and 196.82 mg/dl (3×) and 200.38 mg/dl (3×) and 214.62 mg/dl
